Source: US11739098B2 (BRISTOL-MYERS SQUIBB COMPANY, priority 2017, dated 2023)

Experiments:
Type in all cases: cell-based
human TLR9 = molecular target: T1, human TLR9 (Homo sapiens, UniProt Q9NR96); test: TLR9 inhibition reporter assay (HEK-Blue cells, SEAP reporter, ODN2006 stimulation); details: HEK-Blue cells overexpressing human TLR9, SEAP reporter, ODN2006 5 nM
T1 construct: host or cells: HEK-Blue cells (HEK293-derived reporter line)
T1 sequence (Q9NR96 26-1032): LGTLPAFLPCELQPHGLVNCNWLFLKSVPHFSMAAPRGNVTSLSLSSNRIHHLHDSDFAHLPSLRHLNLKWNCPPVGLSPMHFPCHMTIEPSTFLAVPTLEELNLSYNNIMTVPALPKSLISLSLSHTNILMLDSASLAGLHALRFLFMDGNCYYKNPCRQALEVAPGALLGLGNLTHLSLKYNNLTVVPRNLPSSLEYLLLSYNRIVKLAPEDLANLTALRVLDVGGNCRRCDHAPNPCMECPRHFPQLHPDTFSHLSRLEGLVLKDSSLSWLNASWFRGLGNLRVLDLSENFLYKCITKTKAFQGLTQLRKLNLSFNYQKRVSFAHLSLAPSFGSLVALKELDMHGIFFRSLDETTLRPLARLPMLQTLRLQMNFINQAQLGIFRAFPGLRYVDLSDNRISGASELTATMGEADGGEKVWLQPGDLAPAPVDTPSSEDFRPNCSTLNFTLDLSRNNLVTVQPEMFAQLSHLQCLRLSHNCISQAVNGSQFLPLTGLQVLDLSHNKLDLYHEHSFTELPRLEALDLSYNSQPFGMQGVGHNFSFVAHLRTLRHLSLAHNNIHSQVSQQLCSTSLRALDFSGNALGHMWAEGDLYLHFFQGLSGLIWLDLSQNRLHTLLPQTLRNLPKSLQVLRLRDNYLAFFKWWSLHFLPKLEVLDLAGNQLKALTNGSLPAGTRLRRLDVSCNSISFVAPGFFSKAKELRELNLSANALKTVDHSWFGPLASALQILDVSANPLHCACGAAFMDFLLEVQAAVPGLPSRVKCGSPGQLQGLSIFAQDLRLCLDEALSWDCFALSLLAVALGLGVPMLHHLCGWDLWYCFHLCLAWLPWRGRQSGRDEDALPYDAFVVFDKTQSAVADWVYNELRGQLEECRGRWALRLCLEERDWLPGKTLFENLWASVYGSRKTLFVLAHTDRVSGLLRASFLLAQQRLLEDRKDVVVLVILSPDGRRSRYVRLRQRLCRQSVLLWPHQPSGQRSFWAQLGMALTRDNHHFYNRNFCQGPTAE
In short: (§1)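 Cells seeded per well (15000 TLR7, 20,000 TLR8, 25,000 TLR9); compound added over 0.05 nM–50 μM for 30 min at room temperature; agonist added (TLR7 gardiquimod 7.5 μM, TLR8 R848 15.9 μM, TLR9 ODN2006 5 nM); 22 h at 37 °C; SEAP measured; percent inhibition calculated.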

human TLR8 = molecular target: T2, human TLR8 (Homo sapiens, UniProt Q9NR97); test: TLR8 inhibition reporter assay (HEK-Blue cells, SEAP reporter, R848 stimulation); details: HEK-Blue cells overexpressing human TLR8, SEAP reporter, R848 15.9 μM
T2 construct: host or cells: HEK-Blue cells (HEK293-derived reporter line)
T2 sequence (Q9NR97 27-1041): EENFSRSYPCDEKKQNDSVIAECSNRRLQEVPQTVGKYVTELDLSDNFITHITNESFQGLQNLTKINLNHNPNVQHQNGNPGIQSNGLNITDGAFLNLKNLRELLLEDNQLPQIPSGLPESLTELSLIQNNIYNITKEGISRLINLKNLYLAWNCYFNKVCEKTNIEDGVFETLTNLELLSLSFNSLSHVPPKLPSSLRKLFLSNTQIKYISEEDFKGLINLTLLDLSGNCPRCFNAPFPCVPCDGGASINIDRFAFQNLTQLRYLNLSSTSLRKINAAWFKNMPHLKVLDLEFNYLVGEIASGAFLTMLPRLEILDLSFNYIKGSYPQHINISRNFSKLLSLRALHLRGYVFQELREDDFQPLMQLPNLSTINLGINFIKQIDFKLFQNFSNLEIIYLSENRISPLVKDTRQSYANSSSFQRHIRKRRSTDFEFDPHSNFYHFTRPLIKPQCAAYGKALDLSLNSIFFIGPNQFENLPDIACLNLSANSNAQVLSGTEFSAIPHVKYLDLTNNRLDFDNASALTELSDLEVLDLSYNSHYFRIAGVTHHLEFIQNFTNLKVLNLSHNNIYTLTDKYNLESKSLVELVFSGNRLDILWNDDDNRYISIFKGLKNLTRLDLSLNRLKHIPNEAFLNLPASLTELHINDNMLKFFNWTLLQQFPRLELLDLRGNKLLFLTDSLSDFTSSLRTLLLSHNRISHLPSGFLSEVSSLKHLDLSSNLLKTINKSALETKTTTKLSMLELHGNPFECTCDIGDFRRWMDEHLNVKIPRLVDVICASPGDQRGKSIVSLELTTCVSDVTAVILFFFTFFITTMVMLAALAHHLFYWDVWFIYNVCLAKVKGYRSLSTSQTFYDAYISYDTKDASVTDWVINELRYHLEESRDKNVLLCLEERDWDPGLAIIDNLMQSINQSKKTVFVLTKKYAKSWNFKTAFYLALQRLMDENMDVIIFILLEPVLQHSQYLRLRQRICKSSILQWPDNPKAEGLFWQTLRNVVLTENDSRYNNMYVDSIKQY
In short: as §1

human TLR7 = molecular target: T3, human TLR7 (Homo sapiens, UniProt Q9NYK1); test: TLR7 inhibition reporter assay (HEK-Blue cells, SEAP reporter, gardiquimod stimulation); details: HEK-Blue cells overexpressing human TLR7, SEAP reporter, gardiquimod 7.5 μM
T3 construct: host or cells: HEK-Blue cells (HEK293-derived reporter line)
T3 sequence (Q9NYK1 27-1049): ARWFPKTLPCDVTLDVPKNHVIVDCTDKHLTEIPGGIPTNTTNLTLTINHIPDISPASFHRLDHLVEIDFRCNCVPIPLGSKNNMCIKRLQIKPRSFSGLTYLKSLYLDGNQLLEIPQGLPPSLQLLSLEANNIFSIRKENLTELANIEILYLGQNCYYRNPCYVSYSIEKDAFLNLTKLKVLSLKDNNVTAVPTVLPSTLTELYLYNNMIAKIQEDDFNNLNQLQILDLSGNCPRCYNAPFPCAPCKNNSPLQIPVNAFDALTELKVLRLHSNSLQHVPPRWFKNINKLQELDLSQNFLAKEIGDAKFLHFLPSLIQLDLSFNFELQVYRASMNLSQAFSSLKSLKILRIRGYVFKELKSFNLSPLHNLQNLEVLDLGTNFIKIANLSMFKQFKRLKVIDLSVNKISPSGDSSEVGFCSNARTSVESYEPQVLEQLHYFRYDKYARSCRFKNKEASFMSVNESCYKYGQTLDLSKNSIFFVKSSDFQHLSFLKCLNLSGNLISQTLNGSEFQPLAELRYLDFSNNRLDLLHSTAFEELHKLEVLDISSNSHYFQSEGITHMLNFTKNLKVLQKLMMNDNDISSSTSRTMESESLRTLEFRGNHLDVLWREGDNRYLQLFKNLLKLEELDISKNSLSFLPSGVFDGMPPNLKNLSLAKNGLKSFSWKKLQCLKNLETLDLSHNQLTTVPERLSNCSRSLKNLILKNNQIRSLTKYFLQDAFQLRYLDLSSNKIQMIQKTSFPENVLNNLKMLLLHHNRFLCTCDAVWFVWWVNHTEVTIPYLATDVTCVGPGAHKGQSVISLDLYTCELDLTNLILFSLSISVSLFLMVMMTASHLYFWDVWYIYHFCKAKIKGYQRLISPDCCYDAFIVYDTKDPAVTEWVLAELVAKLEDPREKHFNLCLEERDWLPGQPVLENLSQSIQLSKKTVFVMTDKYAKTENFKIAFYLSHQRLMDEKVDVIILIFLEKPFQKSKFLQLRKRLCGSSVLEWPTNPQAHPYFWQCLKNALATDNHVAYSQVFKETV
In short: as §1

SMILES	IC50 (human TLR9)	IC50 (human TLR8)	IC50 (human TLR7)
Cc1cc(-c2[nH]c3ccc(C4CCN(C5COC5)CC4)cc3c2C(C)C)c(C)n2nnnc12 [Example 740, 6-(3-isopropyl-5-(1-(oxetan-3-yl)piperidin-4-yl)-1H-indol-2-yl)-5,8-dimethyltetrazolo[1,5-a]pyridine]	1000 to 50000 nM	< 100 nM	100 to 1000 nM
Cc1cc(-c2[nH]c3ccc(C4CCNCC4)cc3c2C(C)C)cc2c(C(=O)N(C)C)cnn12 [Example 275, 5-(3-isopropyl-5-(piperidin-4-yl)-1H-indol-2-yl)-N,N,7-trimethylpyrazolo[1,5-a]pyridine-3-carboxamide]	1000 to 50000 nM	> 3130 nM	100 to 1000 nM
Cc1cc2nccn2cc1-c1[nH]c2ccc(C3CCN(C4CCN(C(C)C)CC4)CC3)cc2c1C(C)C [Example 841, 6-(3-isopropyl-5-(1′-isopropyl-[1,4′-bipiperidin]-4-yl)-1H-indol-2-yl)-7-methylimidazo[1,2-a]pyridine]	< 100 nM	< 100 nM	< 100 nM
CC(C)c1c(-c2ccnc3c2ncn3C)[nH]c2ccc(C3CCNCC3)cc12 [Example 44, 7-(3-isopropyl-5-(piperidin-4-yl)-1H-indol-2-yl)-3-methyl-3H-imidazo[4,5-b]pyridine]	1000 to 50000 nM	1000 to 50000 nM	1000 to 50000 nM
CC(C)c1c(-c2ccc3nc(N)cn3n2)[nH]c2ccc(C3CCNCC3)cc12 [Example 24, 6-(3-isopropyl-5-(piperidin-4-yl)-1H-indol-2-yl)imidazo[1,2-b]pyridazin-2-amine]	1000 to 50000 nM	1000 to 50000 nM	1000 to 50000 nM
Cc1cc(-c2[nH]c3ccc(C4CCN(CC(=O)N(C)C)CC4)cc3c2C(C)C)cc2cn(C)nc12 [Example 379, 2-(4-(2-(2,7-dimethyl-2H-indazol-5-yl)-3-isopropyl-1H-indol-5-yl)piperidin-1-yl)-N,N-dimethylacetamide]	1000 to 50000 nM	< 100 nM	< 100 nM
Cc1cc(-c2[nH]c3ccc(C4CCNCC4)cc3c2C(C)C)cc2ncnn12 [Example 154, 7-(3-isopropyl-5-(piperidin-4-yl)-1H-indol-2-yl)-5-methyl-[1,2,4]triazolo[1,5-a]pyridine]	1000 to 50000 nM	< 100 nM	< 100 nM
COc1c[nH]c2nccc(-c3[nH]c4ccc(C5CCNCC5)cc4c3C)c12 [Example 213, 3-methoxy-4-(3-methyl-5-(piperidin-4-yl)-1H-indol-2-yl)-1H-pyrrolo[2,3-b]pyridine]	1000 to 50000 nM	100 to 1000 nM	1000 to 50000 nM
Cc1nc2cc(-c3[nH]c4ccc(C5CCNCC5)cc4c3C(C)C)ccn2n1 [Example 156, 7-(3-isopropyl-5-(piperidin-4-yl)-1H-indol-2-yl)-2-methyl-[1,2,4] triazolo[1,5-a]pyridine]	100 to 1000 nM	100 to 1000 nM	< 100 nM
Cc1c(-c2ncc3[nH]ccc3n2)[nH]c2ccc(C3CCN(C4CCN(C(C)C)CC4)CC3)cc12 [Example 808, 2-(5-(1′-isopropyl-[1,4′-bipiperidin]-4-yl)-3-methyl-1H-indol-2-yl)-5H-pyrrolo[3,2-d]pyrimidine]	< 100 nM	1000 to 50000 nM	1000 to 50000 nM
Cc1cnc2ccc(-c3[nH]c4ccc(C5CCNCC5)cc4c3C(C)C)cn12 [Example 114, 6-(3-isopropyl-5-(piperidin-4-yl)-1H-indol-2-yl)-3-methylimidazo[1,2-a]pyridine]	100 to 1000 nM	100 to 1000 nM	< 100 nM
CC(C)c1c(-c2c[nH]c3cnccc23)[nH]c2ccc(C3CCNCC3)cc12 [Example 15, 3-(3-isopropyl-5-(piperidin-4-yl)-1H-indol-2-yl)-1H-pyrrolo[2,3-c]pyridine]	100 to 1000 nM	1000 to 50000 nM	100 to 1000 nM
Cc1cc(-c2[nH]c3ccc(C4CCN(CC(=O)N(C)C)CC4)cc3c2C(C)C)cc2[nH]cnc12 [Example 287, 2-(4-(3-isopropyl-2-(4-methyl-1H-benzo[d]imidazol-6-yl)-1H-indol-5-yl)piperidin-1-yl)-N,N-dimethylacetamide]	1000 to 50000 nM	100 to 1000 nM	1000 to 50000 nM
CCc1c(-c2cc3cnn(C)c3cn2)[nH]c2ccc(C3CCNCC3)cc12 [Example 97, 5-(3-ethyl-5-(piperidin-4-yl)-1H-indol-2-yl)-1-methyl-1H-pyrazolo[3,4-c]pyridine]	1000 to 50000 nM	100 to 1000 nM	1000 to 50000 nM
CC(C)c1c(-c2ccnc3[nH]ncc23)[nH]c2cc(F)c(C3CCNCC3)cc12 [Example 253, 4-(6-fluoro-3-isopropyl-5-(piperidin-4-yl)-1H-indol-2-yl)-1H-pyrazolo[3,4-b]pyridine]	100 to 1000 nM	< 100 nM	< 100 nM
